Source: paper PMC9115111, “Metalloprotease Gp63-Targeting Novel Glycoside Exhibits Potential Antileishmanial Activity” (Frontiers in Cellular and Infection Microbiology, 2022)

What was measured:
[1] = test system: L. donovani promastigotes; test: DCFDA estimation of reactive oxygen species in promastigotes; type: cell-based, Leishmania donovani; conditions: Gly2-treated promastigotes, 72 h
Procedure: The redox homeostasis of promastigotes was monitored both qualitatively and quantitively by 2',7'-dichlorodihydrofluorescein diacetate (DCFDA) (Life Technologies, USA) staining. The untreated and […]-treated promastigotes (1 × 10^6 cells/ml) were cultured for 72 h. Following incubation, the parasites were harvested, washed with PBS, and stained with H2DCFDA (20 μM) for 20 min at 37°C. Excess stain was removed by washing with PBS, and samples were resuspended in PBS (50 μl) followed by imaging. Fluorescence intensity was determined using an excitation filter at 485 nm and an emission filter at 535 nm using confocal microscope (Nikon Ti eclipse, USA). The samples were also analyzed through BD FACS diva ([Shivappagowdar et al., 2019]).

MDCK cells = test: MTT cell viability assay on MDCK cells; type: cell-based
Procedure: The J774.A1 murine macrophage cells were grown in Roswell Park Memorial Institute (RPMI) 1640 medium in the presence of 10% (v/v) FBS and 100 U/ml penicillin−100 µg/ml streptomycin (Gibco, Invitrogen, Thermo Fisher Scientific, NY, USA) at 37°C (humidified) and 5% CO2. […] Madin–Darby canine kidney (MDCK) cells were obtained from the National Centre for Cell Science, Pune, India. MDCK cells were derived from the kidney tissue of an adult female Cocker Spaniel. These were grown in Dulbecco’s modified Eagle’s minimal essential medium (DMEM) in the presence of 10% (v/v) FBS and 100 U/ml penicillin−100 µg/ml streptomycin (Gibco, Invitrogen, Thermo Fisher Scientific, NY, USA) at 37°C (humidified) and 5% CO2 ([Ayana et al., 2018]; [Shivappagowdar et al., 2021]).
All the compounds were dissolved in dimethyl sulfoxide (DMSO) (Sigma-Aldrich) for 1 mM stock solution and were screened against promastigotes at a concentration of 5 µM. […]
To evaluate the cytotoxic effects of 12 compounds on L. donovani promastigotes, LDH assay was performed. This assay involves the reduction of tetrazolium salts to formazan during LDH-mediated catalysis of lactate to pyruvate, which can be detected at 490 nM. […] The selectivity index (SI) for the compound was calculated as the ratio between cytotoxicity (CC50) and activity (IC50) against promastigotes ( Table 1 ).

LdGp63 = target: T1, LdGp63 (Leishmania donovani, UniProt P23223); test: Cellular thermal shift assay (CETSA) in promastigotes; type: binding; conditions: 5 µM, 24 h, heated to 80°C; Gp63 destabilized in untreated lysate
T1 construct: endogenous in cells; host or cells: Leishmania donovani promastigotes (AG83 lab strain per abstract)
Procedure: Control cells were incubated with an equal volume of a vehicle. Following incubation, the parasites were washed with PBS to remove excess drug and harvested in 200 μl of a lysis solution (50 mM HEPES, 150 mM NaCl, 1% Triton X-100 and 1% IGEPAL, 1 mM phenylmethyl sulfonyl fluoride). The lysates were centrifuged at 14,000 g for 20 min at 4°C, and supernatants were transferred to new tubes. Furthermore, the protein concentration was measured using the Pierce BCA protein assay kit. After preparation of lysates, 30 μl (0.8 mg/ml) aliquots of the supernatants were heated individually on a Thermomixer compact (Eppendorf) at different temperatures for 7 min and then cooled at room temperature for 3 min. CETSA samples were separated by SDS-PAGE, and immunoblotting was performed as described previously using a mouse polyclonal anti-LdGp63 catalytic domain antibody (1:500) ([Chakrabarti et al., 2021]).

AG83 promastigotes = test: CFDA-SE promastigote proliferation assay (FACS); type: cell-based, Leishmania donovani; conditions: 5 µM
Procedure: AG83 parasite growth and multiplication were assessed by fluorescence-activated cell sorting and fluorescence microscopy with 6-carboxyfluorescein diacetate succinimidyl ester (CFDA-SE, Life Technologies, USA) as a probe. Promastigotes were washed thrice with PBS. The cells were labeled with CFDA-SE dye and were then incubated at 37°C for 10 min. These cells were then resuspended in ice-cold M199 medium. Furthermore, they were centrifuged at 1,200 g for 10 min (4°C) and resuspended in fresh medium. Cells were treated with the Gly2 and were analyzed through BD FACS DIVA for 3 consecutive replicates after 0, 24, 48, and 72 h, respectively ([Messaritakis et al., 2010]).

T1 sequence (P23223 88-565): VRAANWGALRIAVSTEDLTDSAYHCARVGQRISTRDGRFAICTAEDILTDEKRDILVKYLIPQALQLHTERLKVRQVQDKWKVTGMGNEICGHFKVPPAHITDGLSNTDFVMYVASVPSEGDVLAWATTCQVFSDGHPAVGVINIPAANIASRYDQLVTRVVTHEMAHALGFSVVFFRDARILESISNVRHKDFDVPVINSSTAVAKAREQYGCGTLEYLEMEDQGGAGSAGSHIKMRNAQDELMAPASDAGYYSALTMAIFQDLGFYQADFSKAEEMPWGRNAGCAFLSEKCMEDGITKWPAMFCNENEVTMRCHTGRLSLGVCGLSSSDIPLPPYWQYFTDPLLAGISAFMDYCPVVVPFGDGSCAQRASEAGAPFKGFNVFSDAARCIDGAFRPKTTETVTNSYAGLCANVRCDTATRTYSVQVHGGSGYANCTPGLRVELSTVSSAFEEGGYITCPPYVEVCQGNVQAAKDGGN

CC(C)CCOC1O[C@H](CO)[C@@H](O)[C@H](O)[C@H]1O (stereo partly drawn) [Gly2]
% DCFDA+ parasites [1]: ~ 50% | cytotoxicity in MDCK cells (MDCK cells): minimum level of cytotoxicity | thermostability of Gp63 in treated lysates (immunoblot) (LdGp63): stable at higher temperature | percentage of CFDA-positive cells (AG83 promastigotes; 24 h): 81.59% | percentage of CFDA-positive cells (AG83 promastigotes; 48 h): 74.68% | percentage of CFDA-positive cells (AG83 promastigotes; 72 h): 68.48%
